We go through 1 molecule from article PMC11305387, “AlphaFold accelerated discovery of psychotropic agonists targeting the trace amine–associated receptor 1” (Science Advances, 2024).

Converted amounts (≈) assume the structure as drawn.

Data set [1] is described as follows: Metabolic stability in liver microsomes. Conditions: mouse liver microsomes, 1 μM.
A short description of the next data set: Thermodynamic solubility. The data set is classed as physicochemical. The following applies: 100 mM potassium phosphate buffer, aqueous buffer, thermodynamic from solid, 100 mM KPO4-buffer pH 7.4, 37°C. The method, then: Thermodynamic solubility assay used solid form of compound 65. Solid test compound (~2 to 3 mg) was weighed in a glass high-performance liquid chromatography (HPLC) vial, and 100 mM KPO4-buffer (pH 7.4) was added to give a theoretical max concentration if everything is dissolved of ~5 to 6 mg/ml. The vial was incubated at 900 rpm and 37°C in a rotational shaker for 24 hours. After the incubation, an aliquot (200 μl) was transferred to a glass insert and centrifuged at 10,000g and 37°C for 20 min to separate any solid material from the solution. The supernatant was transferred to a new HPLC vial and analyzed by LC-MS/MS.

Data set [2] has as its target T1, hTAAR1 (Homo sapiens, UniProt Q96RJ0).
T1 construct: expressed in transfected cells; host or cells: Expi293F
T1 sequence (Q96RJ0 1-339): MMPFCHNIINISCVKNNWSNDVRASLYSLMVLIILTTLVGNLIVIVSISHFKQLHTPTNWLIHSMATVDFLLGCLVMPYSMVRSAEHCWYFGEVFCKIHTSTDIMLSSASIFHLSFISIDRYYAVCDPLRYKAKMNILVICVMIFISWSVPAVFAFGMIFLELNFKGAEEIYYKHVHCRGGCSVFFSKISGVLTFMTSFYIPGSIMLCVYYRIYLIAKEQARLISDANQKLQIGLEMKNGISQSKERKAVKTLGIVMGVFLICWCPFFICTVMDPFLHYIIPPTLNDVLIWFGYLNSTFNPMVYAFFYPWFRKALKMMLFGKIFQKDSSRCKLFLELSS
The data set is described as follows: cAMP accumulation assay (GloSensor-22F). The data set is classed as cell-based. Here is the method: cAMP accumulation was assessed using a previously described system with some modifications ([45]). hTAAR1 and GloSensor-22F were transected with a 1:1 gene dose (1 μg/ml) in Expi293F cells for 48 hours. Cells were then resuspended in assay buffer [Hanks’ balanced salt solution (HBSS), 10 mM Hepes, 2 mM […] (Promega), and 300 μM 3-isobutyl-1-methylxanthine (Sigma-Aldrich)] and seeded with 25,000 cells per well to a white 384-well plate (CulturPlate, PerkinElmer) and incubated for 1 hour in the dark at RT. After a baseline read, compounds were added, and the plate was read for a further 1 hour (SPARK 10 M, Tecan) with 10-min intervals. The final read at 1 hour was used for analysis.

The target of a further data set is T2, H1 receptor (Homo sapiens, UniProt P35367).
T2 construct: TANGO fusion module (own knowledge, Kroeze et al.: C-terminal V2 tail, TEV site and tTA); 1000000068; host or cells: HTLA (HEK293-derived)
T2 sequence (P35367 whole entry, the tested form may be a part): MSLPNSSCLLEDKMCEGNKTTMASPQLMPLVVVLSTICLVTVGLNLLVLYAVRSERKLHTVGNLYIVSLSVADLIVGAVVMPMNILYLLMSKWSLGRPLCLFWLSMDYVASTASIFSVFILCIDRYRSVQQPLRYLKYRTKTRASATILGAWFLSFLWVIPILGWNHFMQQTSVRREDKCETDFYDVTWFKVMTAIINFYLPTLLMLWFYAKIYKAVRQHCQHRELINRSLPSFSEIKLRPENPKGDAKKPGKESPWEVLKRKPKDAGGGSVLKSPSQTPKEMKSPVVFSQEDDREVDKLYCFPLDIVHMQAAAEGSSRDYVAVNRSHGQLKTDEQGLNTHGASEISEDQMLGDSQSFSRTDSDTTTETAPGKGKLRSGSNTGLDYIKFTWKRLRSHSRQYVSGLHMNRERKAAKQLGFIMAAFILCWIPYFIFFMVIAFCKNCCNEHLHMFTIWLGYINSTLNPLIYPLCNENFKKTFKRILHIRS
The data set is described as follows: PRESTO-TANGO β-arrestin recruitment. The data set is classed as cell-based. The following applies: concentration-response curves (fig. S10). (In general: Arrestin recruitment assays detect the binding of arrestin to an activated receptor.)

Data set [3] is described as follows: Caco-2 cells permeability assay. The data set is classed as in vitro ADME. Conditions: human. Here is the method:
Caco-2 cell monolayers (passages: 94 to 105) were grown on permeable filter support and used for transport study on day 21 after seeding. Before the experiment, a drug solution of 10 μM was prepared and warmed to 37°C. The Caco-2 filters were washed with pre-warmed HBSS before the experiment, and, thereafter, the experiment was started by applying the donor solution on the apical or basolateral side. The transport experiments were carried out at pH 7.4 in both the apical and basolateral chamber. The experiments were performed at 37°C and with a stirring rate of 500 rpm. The receiver compartment was sampled at 15, 30, and 60 min, and, at 60 min, also a final sample from the donor chamber was taken to calculate the mass balance of the compound. The samples (100 μl) were transferred to a 96-well plate containing 100 μl of methanol, and Warfarin as internal standard and was sealed until LC-MS/MS analysis.
For orientation: Caco-2 cells form a polarised layer with tight junctions and transporters.

The target of data set [4] is T1, hTAAR1. The experiment in a line: G protein (mini-Gs) recruitment luminescence complementation assay, agonist mode. The data set is classed as cell-based. The method, then: The 62 predicted ligands were purchased from commercial vendors and tested for activity at a concentration of 20 μM in a luminescence complementation–based assay measuring recruitment of mini-Gs to the human TAAR1 ([38]).
To monitor TAAR1 activation by compounds, we used our previously described system. […] Cells were then reseeded in solid white, 96-well plates (Corning) with 90 μl of cell suspension per well. Luminescence was read using a plate reader for 5 min (SPARK 10 M, Tecan) before the addition of compounds to ensure signal stability. Ten microliters of each compound diluted in DPBS was added, and luminescence from each well was read for 10 min, with 100-ms read time per well. The A2AR counter-screen was performed using the same protocol. In these experiments, the hTAAR1 was replaced by a C-terminally SmBiT-tagged hA2AR construct.

A further data set concerns WT and TAAR1-KO mice. The experiment in a line: Accelerating rotarod test. The following applies: 1 mg/kg i.p., 30 min after injection. The data set is classed as in vivo. The method, then:
To test compound 65 for sedative effects, mice were subjected to the accelerating rotarod test as previously described ([77]), with minor modifications. Mice were acclimatized to the rotarod (Ugo Basile, Gemonio, Italy) for 2 days before testing, starting at 4 rotations per minute (RPM) and accelerating to 40 RPM over 300 s. A baseline measure of performance, defined as the latency to fall from the rotarod with a cutoff time of 300 s, was taken before injection with either compound 65 (1 mg/kg), xylazine (5 mg/kg), or vehicle intraperitoneally. The mice were then retested 30 min after injection.
For orientation: Falling from the rotarod earlier than controls is read as motor impairment.

Another data set concerns the target T3, D2 receptor (Homo sapiens, UniProt P14416).
T3 construct: TANGO fusion module (own knowledge, Kroeze et al.: C-terminal V2 tail, TEV site and tTA); 1000000068; host or cells: HTLA (HEK293-derived)
The data set is described as follows: cell-based. The data set is classed as cell-based. Here is the method: Assessment of receptor activation by compounds at all human aminergic receptors were carried out using a modified version of the PRESTO-TANGO method. […] The plate was spun down, and 5 μl of a 1:25 dilution (in DPBS) of polyethylenimine (PEI) derivative (Transporter 5, Polysciences) was added (1:4 cDNA to PEI ratio) and incubated for 20 min at room temperature (RT). […] Luminescence signal was detected using a plate-reader (SPARK, Tecan) with 100-ms integration time and a 100-ms delay between well reads.

The subject of data set [5] is TAAR1-WT and TAAR1-KO mice. The experiment in a line: Core-body temperature (CBT) measurement. The data set is classed as in vivo. The method, then: Core temperature was determined by a rectal thermoprobe. Compounds or vehicle was administered intraperitoneally. A basal measurement was performed immediately before injection. Measurements were repeated every 30 min for 2 hours. Mean changes in CBT were calculated by subtracting the value from vehicle treated group at the corresponding time point. A washout of 1 week between different doses of compound 65 was applied, and mice were injected starting with the lowest dose first.

T3 sequence (P14416 whole entry, the tested form may be a part): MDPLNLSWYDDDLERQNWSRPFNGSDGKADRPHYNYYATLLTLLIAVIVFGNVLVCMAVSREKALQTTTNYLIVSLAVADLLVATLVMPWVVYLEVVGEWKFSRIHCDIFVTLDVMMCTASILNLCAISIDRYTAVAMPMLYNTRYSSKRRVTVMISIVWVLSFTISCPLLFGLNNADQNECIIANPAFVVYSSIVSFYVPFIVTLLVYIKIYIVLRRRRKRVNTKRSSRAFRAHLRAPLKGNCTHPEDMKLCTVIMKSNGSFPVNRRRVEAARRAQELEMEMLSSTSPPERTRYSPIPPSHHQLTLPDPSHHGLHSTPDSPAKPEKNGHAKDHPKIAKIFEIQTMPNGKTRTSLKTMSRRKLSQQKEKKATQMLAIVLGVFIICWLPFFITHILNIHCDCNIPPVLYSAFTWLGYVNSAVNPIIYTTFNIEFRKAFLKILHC

As to `CC1=C(c2ccco2)CNCC1` [Compound 65], in data set [1], the “intrinsic clearance CLint” value worked out at 7 μl/min per mg. For the same molecule, the solubility (usually how much of the substance goes into solution per volume) at 24 h in the data set “Thermodynamic solubility” amounted to 50 mM (≈ 8160 µg/mL). The EC50 at hTAAR1 [2] is 0.398 nM; at hTAAR1 [4] (TAAR1, G protein recruitment assay, read-out: pEC50 (converted)) it was 25.1 nM; on D2 receptor (concentration-response curves), > 1000 nM. Besides, the “agonism at the H1 receptor” value on H1 receptor was “lacked agonism”. Besides, the efflux ratio (in general, a quotient of directional permeabilities that is used to spot active efflux) at 60 min, 10 μM in [3] was 2.2. In data set [3] (apical-to-basal, 10 μM, pH 7.4), the Papp A→B (as a rule, how fast a substance crosses the layer from the apical side) at 60 min, 10 μM worked out at 77 ×10⁻⁶ cm/s. For the same molecule, the Papp B→A (commonly the apparent permeability from the basolateral to the apical side of a cell layer) at 60 min, 10 μM in data set [3] (basal-to-apical, 10 μM, pH 7.4) was found to be 168 ×10⁻⁶ cm/s. For the same molecule, the “fold more potent than Ulotaront” value at hTAAR1 [4] (TAAR1 G protein recruitment) is listed as > 25 fold. In addition, the “effect on rotarod performance (sedation)” value with WT and TAAR1-KO mice is reported as “did not influence rotarod performance”. Besides, on D2 receptor (concentration-response curves), the Emax (commonly the greatest response seen or fitted, relative to the assay's reference) is 59%. Further, the “agonism at the D2 receptor” value on D2 receptor (panel screen) is listed as “agonism”. The “effect on CBT” value in data set [5] (TAAR1-KO mice) is listed as “no decrease in CBT was observed”; in [5] (TAAR1-WT mice, 0.5 and 1 mg/kg i.p.) it was “reduction of CBT”. Besides, the “maximal reduction of CBT, 5 mg/kg versus 1 mg/kg” value in data set [5] (TAAR1-WT mice) is on record as “did not observe a significant increase in the maximal reduction of CBT”. Besides, the “time of peak CBT reduction after injection” value in data set [5] (TAAR1-WT mice, 0.5 and 1 mg/kg) is reported as 30 min. Moreover, the “time to return of CBT to baseline” value in data set [5] (TAAR1-WT mice, 0.5 and 1 mg/kg) was found to be 2 h. Moreover, the “extent of CBT reduction” value in data set [5] (WT mice, 1 mg/kg, 30 and 60 min after injection) was ~ 1 °C.
